According to patent US9296760B2, “Antibacterial compounds” (JANSSEN SCIENCES IRELAND UC, priority 2012, dated 2016):
≈ marks a conversion by molar mass, not a printed value.

How the values were obtained:
[1] = target: T1, S. aureus ATCC 29213 FabI (Staphylococcus aureus, UniProt Q6GI75); experiment: Staphylococcus aureus FabI enzyme inhibition assay; assay type: biochemical; settings: NADH consumption, 30 minutes, read-out: FabI (300.235) IC50 (converted)
T1 sequence (Q6GI75 1-256): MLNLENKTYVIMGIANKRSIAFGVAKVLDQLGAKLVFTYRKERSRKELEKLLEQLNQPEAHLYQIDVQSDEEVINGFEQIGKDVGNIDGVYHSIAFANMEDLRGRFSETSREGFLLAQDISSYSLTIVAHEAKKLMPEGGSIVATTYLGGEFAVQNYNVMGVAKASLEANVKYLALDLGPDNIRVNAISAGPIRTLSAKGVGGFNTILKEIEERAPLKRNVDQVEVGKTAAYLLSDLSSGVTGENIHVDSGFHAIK
Description: Y.1 FabI Enzyme Inhibition: Staphylococcus aureus FabI Enzyme Inhibition Assay
FabI enzyme inhibition assays were carried out in half-area, 384-well microtitre plates. […] The reaction mixtures were incubated for 30 minutes at room temperature and the reaction was stopped by adding 200 mM Tris buffer (pH 9.0) to create a pH-shift. The consumption of NADH was monitored by measuring the change in absorbance at […]. By comparing sample readings to those of negative (absence of compound) and positive (absence of enzyme) controls, the percent inhibition of enzymatic activity of the compounds was determined A best-fit curve is fitted by a minimum of squares method. From this an IC50-value (expressed in μg/ml), resulting in 50% inhibition of enzymatic activity, was obtained.

[2] = tested on: Staphylococcus aureus ATCC 29213; experiment: Antibacterial susceptibility testing, IC90 determination (broth microdilution, resazurin); assay type: cell-based; settings: Staphylococcus aureus, ATCC29213, S. aureus ATCC 29213; 90% inhibitory concentration for bacterial growth; read-out: STA (361.159) IC90
Description: Y.2 In Vitro Method for Testing Compounds for Antibacterial Activity Against Various Bacterial Strains
Preparation of Bacterial Suspensions for Susceptibility Testing
The following bacteria were used: Staphylococcus aureus ATCC 29213, methicillin-resistant Staphylococcus aureus (MRSA) ATCC 700788 and Escherichia coli ATCC 35218. The bacteria used in this study were grown overnight in flasks containing 100 ml Mueller-Hinton broth (Difco cat. nr. 0757-17) in sterile de-ionized water, with shaking, at 37° C. Stocks were store at −70° C. until use.
Bacteria were incubated on a tryptic soy agar plate containing 5% sheep blood (Becton Dickinson cat. nr. 254053) for 18-24 hours at 35° C. in aerobic conditions (first passage). For the second passage, fresh Mueller-Hinton broth is inoculated with 5-10 colonies and grown overnight at 35° C. until turbidity (reaching log-phase) in aerobic conditions is reached. The bacterial suspension is then adjusted to 0.5 McFarland density and further diluted 1:100 in Mueller Hinton broth medium. This is used as inoculum.
The result(s) are depicted the table below (for STA ATCC 29213).
Antibacterial Susceptibility Testing: IC90 Determination
(§1) MIC assays were performed by the broth microdilution method in a 96-well format (flat-bottom microtitre plates) with a final volume of 0.1 ml Mueller Hinton broth containing two-fold serial dilutions of compounds and inoculated with 5×10^5 CFU/ml of bacteria (standard inoculum size according to CLSI guidelines). Inhibitors are typically varied over the range of 63 to 0.49 μM. The final DMSO concentration in the assay was 1.25% (maximum tolerable DMSO concentration=6%). In the assays where the effect of human serum on the activity of the compounds against S. aureus was tested, human serum was added at a final concentration of 10%. The plates were incubated at 35° C. for 16-20 hours. At the end of incubation the bacterial growth was quantified fluorometrically. For this, resazurin was added to all wells and the plates were re-incubated. The incubation time is dependent on the type of bacteria. A change in color from blue to pink indicated the growth of bacteria. The fluorescence was read in computer-controlled fluorometer (Fluoroskan Ascent FL, Labsystems) at an excitation wavelength 540 nm and an emission wavelength of 590 nm. The % growth inhibition achieved by the compounds was calculated according to standard methods. The IC90 (expressed in μg/ml) was defined as the 90% inhibitory concentration for bacterial growth. A panel of reference compounds were simultaneously tested for QC approval.

S. aureus = experiment: Antibacterial susceptibility testing, IC90 determination with 10% human serum; assay type: cell-based, Staphylococcus aureus; settings: Staphylococcus aureus, S. aureus with human serum at final concentration of 10%; read-out: STA + 10% HS (361.169) IC90
Description: as §1, with “Antibacterial Susceptibility Testing: IC90 Determination MIC” for “MIC”, “approval. The results are depicted in the table(s) below (STA+10% HS).” for “approval.”

Cytotoxicity MTT assay = assay type: cell-based, Human; settings: human, HelaM cells, read-out: HELAM (222.125) CC50
Description: Cytotoxicity of the compounds was evaluated using the MTT assay. Human HelaM cells grown in 96-well plates were exposed to serial dilutions of the tested compounds (final volume of 0.2 ml) and incubated for 72 hours at 37° C. and 5% CO2 Inhibitors are typically varied over the range of 25 to 0.8 μM. The final DMSO concentration in the assay is 0.5%. MTT (3-(4,5-Dimethylthiazol-2-yl)-2,5-diphenyltetrazolium bromide, a tetrazole) was added and reduced to purple formazan only in living cells. Solubilization of the formazan crystals was achieved by adding 100 μl 2-propanol. Cell viability was determined by measuring the absorbance of the reduced formazan, giving a purple color, at 540 nm and 690 nm. The absorbance measured at 690 nm was automatically subtracted from the absorbance at 540 nm, to eliminate the effects of non-specific absorption. The percent cytotoxicity achieved by the compounds was calculated according to standard methods. Cytotoxicity is reported as CC50, the concentration that causes a 50% reduction in cell viability.
The results are depicted in the table(s) below (HELAM).

| melting point [°C] | IC50 [1] [nM] | IC90 [2] [µg/mL] | IC90 (S. aureus) [µg/mL] | Structure (SMILES) | CC50 at 72 h (Cytotoxicity MTT assay) [µg/mL] |
| --- | --- | --- | --- | --- | --- |
| 224 |  |  |  | O=C1Nc2ncc(/C=C/C(=O)N3CCC=C(c4ccccc4)CC3)cc2CN2CCSCC12 (stereo not shown) [Compound K1] |  |
| 186 | 730 | 0.4 (≈ 0.942 µM) | 0.84 | O=C(Nc1ccc(/C=C/C(=O)N2CCC=C(c3ccccc3)CC2)cn1)c1cccnc1 [compound 1] | 0.43 (≈ 1.01 µM) |
| 156 | 1190 | 0.44 (≈ 1.06 µM) | 1.43 | O=C(Nc1ccc(/C=C/C(=O)N2CCC=C(c3ccccc3)CC2)cn1)c1ccoc1 [compound 2] | > 10.4 |
| 122 | 1630 | 0.45 (≈ 0.952 µM) | 1.68 | COc1ccc(F)cc1C1=CCCN(C(=O)/C=C/c2ccc(NC(=O)c3cccnc3)nc2)CC1 [compound 3] | 1.13 (≈ 2.39 µM) |
|  | 1400 | 0.63 (≈ 1.47 µM) | 1.66 | Cn1cc(C(=O)Nc2ccc(/C=C/C(=O)N3CCC=C(c4ccccc4)CC3)cn2)cn1 [compound 4] | 3.94 (≈ 9.22 µM) |
| 120 | 1790 | 0.66 (≈ 1.36 µM) | 2.83 | COc1ccc(F)cc1C1=CCCN(C(=O)/C=C/c2ccc(NC(=O)c3cncc(C)c3)nc2)CC1 [compound 5] | 7.8 (≈ 16 µM) |
| 152 | ~802 | 0.69 (≈ 1.91 µM) | 1.9 | CC(=O)Nc1ccc(/C=C/C(=O)N2CCC=C(c3ccccc3)CC2)cn1 [compound 6] | > 9.08 |
|  | 662 | 0.78 (≈ 2.25 µM) | 1.25 | O=CNc1ccc(/C=C/C(=O)N2CCC=C(c3ccccc3)CC2)cn1 [compound 7] | 7.18 (≈ 20.7 µM) |
| 192 | 2130 | 0.84 (≈ 1.96 µM) | 6.7 | Cc1occc1C(=O)Nc1ccc(/C=C/C(=O)N2CCC=C(c3ccccc3)CC2)cn1 [compound 8] | 5.64 (≈ 13.2 µM) |
| 158.31 | 1820 | 0.85 (≈ 2.01 µM) | 6.26 | O=C(Nc1ccc(/C=C/C(=O)N2CCC=C(c3ccccc3)CC2)cn1)c1ccccc1 [compound 9] | 4.24 (≈ 10 µM) |
| 138 | 1920 | 0.92 (≈ 2.15 µM) | 2.07 | Cn1nccc1C(=O)Nc1ccc(/C=C/C(=O)N2CCC=C(c3ccccc3)CC2)cn1 [compound 10] | 5.44 (≈ 12.7 µM) |
| 120 | 1620 | 1.26 (≈ 3.05 µM) | 3.17 | O=C(Nc1ccc(/C=C/C(=O)N2CCC=C(c3ccccc3)CC2)cn1)c1c[nH]cn1 [compound 11] | > 10.4 |
|  | ~1070 | 2.84 (≈ 7.07 µM) | 11.8 | CC1(C(=O)Nc2ccc(/C=C/C(=O)N3CCC=C(c4ccccc4)CC3)cn2)CC1 [compound 15] | 6.59 (≈ 16.4 µM) |
|  | 3010 | 13.3 (≈ 41.7 µM) | > 20.1 | Nc1ccc(/C=C/C(=O)N2CCC=C(c3ccccc3)CC2)cn1 [compound 23] | 5.3 (≈ 16.6 µM) |
|  | 5260 | 21 (≈ 58.2 µM) | > 22.8 | CC(C)Nc1ccc(/C=C/C(=O)N2CCC=C(c3ccccc3)CC2)cn1 [compound 24] | > 9.08 |
|  | 2030 | > 25.5 | > 25.5 | CC(C)(C)C(=O)Nc1ccc(/C=C/C(=O)N2CCC=C(c3ccccc3)CC2)cn1 [compound 25] | 6.32 (≈ 15.7 µM) |
|  | 1390 | > 25.5 | > 25.5 | CC(C)CC(=O)Nc1ccc(/C=C/C(=O)N2CCC=C(c3ccccc3)CC2)cn1 [compound 26] | 3.77 (≈ 9.34 µM) |
|  | 2100 | > 26.8 | > 26.8 | O=C(Nc1ccc(/C=C/C(=O)N2CCC=C(c3ccccc3)CC2)cn1)c1ccccn1 [compound 27] | 3.83 (≈ 9.02 µM) |
|  | 1200 | > 26.8 | 26.2 | O=C(Nc1ccc(/C=C/C(=O)N2CCC=C(c3ccccc3)CC2)cn1)c1cnccn1 [compound 28] | > 10.7 |
|  | 3100 | > 27.1 | > 27.1 | O=C(Nc1ccc(/C=C/C(=O)N2CCC=C(c3ccccc3)CC2)cn1)C1CCCCC1 [compound 29] | 3.15 (≈ 7.33 µM) |
|  | ~1760 | 27.7 (≈ 66.3 µM) | 33.3 | O=C(Nc1ccc(/C=C/C(=O)N2CCC=C(c3ccccc3)CC2)cn1)C1CCCO1 (stereo not shown) [compound 30] | 11 (≈ 26.4 µM) |
|  | 686 | 0.48 (≈ 1.03 µM) | 0.66 | CS(=O)(=O)N1CC(=O)Nc2ncc(/C=C/C(=O)N3CCC=C(c4ccccc4)CC3)cc2C1 [compound 37] | 2.04 (≈ 4.37 µM) |
|  | 743 | 0.51 (≈ 1.18 µM) | 0.75 | CC(=O)N1CC(=O)Nc2ncc(/C=C/C(=O)N3CCC=C(c4ccccc4)CC3)cc2C1 [compound 39] | > 10.8 |
|  | ~1510 | 0.77 (≈ 1.66 µM) | 3.33 | O=C1CN(c2ccccc2)Cc2cc(/C=C/C(=O)N3CCC=C(c4ccccc4)CC3)cnc2N1 [compound 42] | 11.7 (≈ 25.1 µM) |
|  | 1110 | < 0.26 | 0.46 | COc1ccc(F)cc1C1=CCCN(C(=O)/C=C/c2cnc3c(c2)CN2CCN(C(C)=O)CC2C(=O)N3)CC1 (stereo not shown) [compound 48] | > 13.4 |
